These are literature values, as cited in patent publication US9604977B2, “Bicyclic thiophenylamide compounds” (Hoffmann-La Roche Inc., priority 2012, dated 2017).

Take `Cc1noc(-c2c(NC(=O)C3=C(C(=O)O)CCCC3)sc3c2CCCC3)n1` [Compound 3]: in the data set on mice under HF diet, the “insulin and glucose tolerance” value is “no improvement in insulin and glucose tolerance”; the “plasma triglyceride and free fatty acid” value was “reduction in plasma triglyceride and free fatty acid”.
For the compound `CCc1c(-c2ccccc2)c(-c2ccccc2)nn1-c1ccccc1-c1cccc(OCC(=O)O)c1` [BMS309403], in the data set on ob/ob mice (clamp study in ob/ob mice), the “glucose uptake in muscle and adipose” value is “increased glucose uptake in muscle and adipose”; the hepatic glucose production result is “reduction of hepatic glucose production”. In the data set on ob/ob mice (ob/ob mice), the “body weight and energy consumption” value was “no change in body weight and energy consumption”; the hepatic steatosis result was “reduction in hepatic steatosis”. Further, the atherosclerotic plaques formation entry in the data set with ApoE KO mice was “decrease in atherosclerotic plaques formation”.
